Measurements published in ChEMBL document CHEMBL1134862, “Rational design of 4,5-disubstituted-5,7-dihydro-pyrrolo[2,3-d]pyrimidin-6-ones as a novel class of inhibitors of epidermal growth factor receptor (EGF-R) and Her2(p185(erbB)) tyrosine kinases” (Bioorg Med Chem Lett, 2002).

Assays:
[1] = molecular target: T1, Epidermal growth factor receptor (Homo sapiens, UniProt P00533); test: Inhibition of autophosphorylation of human epidermal growth factor-receptor (EGF-R) expressed in A431 cells; format: functional, cell-based, A-431
T1 sequence (P00533 whole entry): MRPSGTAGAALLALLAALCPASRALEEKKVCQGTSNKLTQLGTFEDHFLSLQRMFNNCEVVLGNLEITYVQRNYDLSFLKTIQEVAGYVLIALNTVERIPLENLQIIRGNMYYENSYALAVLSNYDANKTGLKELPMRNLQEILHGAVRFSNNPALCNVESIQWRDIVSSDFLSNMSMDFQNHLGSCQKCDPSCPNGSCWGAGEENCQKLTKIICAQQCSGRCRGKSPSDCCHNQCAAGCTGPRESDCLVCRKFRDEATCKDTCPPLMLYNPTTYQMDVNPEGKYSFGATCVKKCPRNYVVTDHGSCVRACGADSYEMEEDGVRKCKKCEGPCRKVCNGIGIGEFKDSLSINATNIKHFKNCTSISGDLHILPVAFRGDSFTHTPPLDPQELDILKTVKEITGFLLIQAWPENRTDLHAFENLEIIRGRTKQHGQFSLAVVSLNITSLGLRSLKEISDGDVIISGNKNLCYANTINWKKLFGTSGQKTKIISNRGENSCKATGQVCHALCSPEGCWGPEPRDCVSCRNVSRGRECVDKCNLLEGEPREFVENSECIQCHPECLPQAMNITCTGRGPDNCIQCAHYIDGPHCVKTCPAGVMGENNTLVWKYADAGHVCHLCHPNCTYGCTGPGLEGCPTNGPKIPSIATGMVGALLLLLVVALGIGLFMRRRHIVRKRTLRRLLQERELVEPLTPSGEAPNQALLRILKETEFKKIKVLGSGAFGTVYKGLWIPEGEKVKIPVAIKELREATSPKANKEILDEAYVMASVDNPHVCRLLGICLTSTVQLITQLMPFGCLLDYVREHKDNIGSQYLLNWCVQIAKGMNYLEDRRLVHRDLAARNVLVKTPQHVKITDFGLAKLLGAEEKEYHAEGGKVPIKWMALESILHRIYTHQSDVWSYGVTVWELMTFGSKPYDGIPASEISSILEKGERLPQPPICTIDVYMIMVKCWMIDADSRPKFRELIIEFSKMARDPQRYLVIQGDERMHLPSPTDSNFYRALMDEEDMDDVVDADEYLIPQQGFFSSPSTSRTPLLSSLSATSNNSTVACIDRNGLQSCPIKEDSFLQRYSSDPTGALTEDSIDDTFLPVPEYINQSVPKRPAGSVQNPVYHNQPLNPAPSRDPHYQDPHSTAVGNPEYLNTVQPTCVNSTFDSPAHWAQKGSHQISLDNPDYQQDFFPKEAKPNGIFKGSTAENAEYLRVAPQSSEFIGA

[2] = molecular target: T1, Epidermal growth factor receptor; test: Inhibitory activity towards tyrosine phosphorylation for the epidermal growth factor-receptor kinase
[3] = molecular target: Vascular endothelial growth factor receptor 2 (Homo sapiens, UniProt P35968); test: Inhibition of tyrosine phosphorylation in cells expressing human VEGFR2 (Flk-1/KDR) kinase
Chain of Vascular endothelial growth factor receptor 2 (P35968 whole entry): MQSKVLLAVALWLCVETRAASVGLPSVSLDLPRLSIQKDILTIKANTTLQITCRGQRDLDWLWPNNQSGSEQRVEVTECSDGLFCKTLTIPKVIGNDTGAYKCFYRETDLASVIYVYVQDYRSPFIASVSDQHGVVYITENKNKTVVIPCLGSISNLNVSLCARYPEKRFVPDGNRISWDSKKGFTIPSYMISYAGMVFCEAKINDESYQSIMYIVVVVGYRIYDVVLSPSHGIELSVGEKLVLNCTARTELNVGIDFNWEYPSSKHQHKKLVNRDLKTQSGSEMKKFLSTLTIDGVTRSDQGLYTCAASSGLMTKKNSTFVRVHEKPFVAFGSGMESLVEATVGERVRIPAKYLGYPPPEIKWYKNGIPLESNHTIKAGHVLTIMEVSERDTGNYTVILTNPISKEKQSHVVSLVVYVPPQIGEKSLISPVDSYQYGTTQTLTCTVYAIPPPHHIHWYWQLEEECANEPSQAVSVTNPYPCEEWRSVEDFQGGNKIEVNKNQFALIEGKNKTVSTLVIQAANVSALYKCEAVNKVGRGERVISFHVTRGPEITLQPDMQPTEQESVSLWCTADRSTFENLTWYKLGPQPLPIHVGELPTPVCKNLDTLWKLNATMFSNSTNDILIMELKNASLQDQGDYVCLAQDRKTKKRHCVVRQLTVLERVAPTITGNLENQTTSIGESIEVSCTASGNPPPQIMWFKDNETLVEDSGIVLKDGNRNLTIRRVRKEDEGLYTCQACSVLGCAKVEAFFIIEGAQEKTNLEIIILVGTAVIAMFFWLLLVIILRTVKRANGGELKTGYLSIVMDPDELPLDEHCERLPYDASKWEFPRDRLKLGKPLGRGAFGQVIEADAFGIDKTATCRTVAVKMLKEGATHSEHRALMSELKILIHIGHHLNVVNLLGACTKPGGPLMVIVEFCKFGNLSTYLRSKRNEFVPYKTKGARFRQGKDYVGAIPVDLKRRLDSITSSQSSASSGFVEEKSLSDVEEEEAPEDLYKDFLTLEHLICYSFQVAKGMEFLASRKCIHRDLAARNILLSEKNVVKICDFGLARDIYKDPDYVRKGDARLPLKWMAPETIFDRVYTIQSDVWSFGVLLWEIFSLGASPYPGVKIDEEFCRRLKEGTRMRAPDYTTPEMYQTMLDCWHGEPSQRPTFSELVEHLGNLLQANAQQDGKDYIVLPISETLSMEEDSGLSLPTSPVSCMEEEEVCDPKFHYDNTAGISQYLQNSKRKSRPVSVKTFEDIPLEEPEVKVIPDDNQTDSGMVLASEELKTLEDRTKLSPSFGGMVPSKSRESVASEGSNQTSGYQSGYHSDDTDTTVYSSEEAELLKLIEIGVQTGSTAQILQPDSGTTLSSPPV

[4] = molecular target: Platelet-derived growth factor receptor beta (Homo sapiens, UniProt P09619); test: Inhibitory activity towards tyrosine phosphorylation of PDGF-receptor beta kinase
Chain of Platelet-derived growth factor receptor beta (P09619 whole entry): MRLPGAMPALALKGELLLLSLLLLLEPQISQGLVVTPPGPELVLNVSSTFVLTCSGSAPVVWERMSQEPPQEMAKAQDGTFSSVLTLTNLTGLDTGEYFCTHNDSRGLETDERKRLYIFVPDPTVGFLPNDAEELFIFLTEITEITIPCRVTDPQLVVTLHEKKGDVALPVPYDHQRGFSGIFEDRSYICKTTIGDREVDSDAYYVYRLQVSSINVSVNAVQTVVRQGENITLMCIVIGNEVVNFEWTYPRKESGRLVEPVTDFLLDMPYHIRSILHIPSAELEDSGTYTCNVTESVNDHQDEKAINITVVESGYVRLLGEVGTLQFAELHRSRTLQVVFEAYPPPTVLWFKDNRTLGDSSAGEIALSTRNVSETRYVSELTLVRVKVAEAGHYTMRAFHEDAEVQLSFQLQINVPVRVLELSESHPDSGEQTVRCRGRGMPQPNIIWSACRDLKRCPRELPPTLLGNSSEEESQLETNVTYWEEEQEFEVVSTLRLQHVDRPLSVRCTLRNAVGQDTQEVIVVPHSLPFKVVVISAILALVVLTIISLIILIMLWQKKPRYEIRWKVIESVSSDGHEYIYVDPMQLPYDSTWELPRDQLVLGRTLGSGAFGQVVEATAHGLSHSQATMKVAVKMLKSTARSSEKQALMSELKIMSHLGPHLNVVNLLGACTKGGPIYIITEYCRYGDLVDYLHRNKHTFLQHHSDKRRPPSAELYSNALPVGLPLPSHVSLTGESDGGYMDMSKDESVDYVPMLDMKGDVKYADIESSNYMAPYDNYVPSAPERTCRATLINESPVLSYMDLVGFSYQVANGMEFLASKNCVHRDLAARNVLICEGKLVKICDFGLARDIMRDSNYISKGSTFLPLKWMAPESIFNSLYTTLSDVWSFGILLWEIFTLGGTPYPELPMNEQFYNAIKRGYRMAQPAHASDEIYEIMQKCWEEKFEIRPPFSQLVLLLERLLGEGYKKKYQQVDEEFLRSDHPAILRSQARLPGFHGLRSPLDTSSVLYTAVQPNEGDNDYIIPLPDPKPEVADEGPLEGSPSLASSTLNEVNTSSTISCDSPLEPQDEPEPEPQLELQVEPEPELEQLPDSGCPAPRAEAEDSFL

[5] = molecular target: Receptor tyrosine-protein kinase erbB-2 (Homo sapiens, UniProt P04626); test: Inhibition of autophosphorylation of human Her (p185erbB) tyrosine kinase expressed in SKOV-3 cells; format: functional, cell-based, SK-OV-3
Chain of Receptor tyrosine-protein kinase erbB-2 (P04626 whole entry): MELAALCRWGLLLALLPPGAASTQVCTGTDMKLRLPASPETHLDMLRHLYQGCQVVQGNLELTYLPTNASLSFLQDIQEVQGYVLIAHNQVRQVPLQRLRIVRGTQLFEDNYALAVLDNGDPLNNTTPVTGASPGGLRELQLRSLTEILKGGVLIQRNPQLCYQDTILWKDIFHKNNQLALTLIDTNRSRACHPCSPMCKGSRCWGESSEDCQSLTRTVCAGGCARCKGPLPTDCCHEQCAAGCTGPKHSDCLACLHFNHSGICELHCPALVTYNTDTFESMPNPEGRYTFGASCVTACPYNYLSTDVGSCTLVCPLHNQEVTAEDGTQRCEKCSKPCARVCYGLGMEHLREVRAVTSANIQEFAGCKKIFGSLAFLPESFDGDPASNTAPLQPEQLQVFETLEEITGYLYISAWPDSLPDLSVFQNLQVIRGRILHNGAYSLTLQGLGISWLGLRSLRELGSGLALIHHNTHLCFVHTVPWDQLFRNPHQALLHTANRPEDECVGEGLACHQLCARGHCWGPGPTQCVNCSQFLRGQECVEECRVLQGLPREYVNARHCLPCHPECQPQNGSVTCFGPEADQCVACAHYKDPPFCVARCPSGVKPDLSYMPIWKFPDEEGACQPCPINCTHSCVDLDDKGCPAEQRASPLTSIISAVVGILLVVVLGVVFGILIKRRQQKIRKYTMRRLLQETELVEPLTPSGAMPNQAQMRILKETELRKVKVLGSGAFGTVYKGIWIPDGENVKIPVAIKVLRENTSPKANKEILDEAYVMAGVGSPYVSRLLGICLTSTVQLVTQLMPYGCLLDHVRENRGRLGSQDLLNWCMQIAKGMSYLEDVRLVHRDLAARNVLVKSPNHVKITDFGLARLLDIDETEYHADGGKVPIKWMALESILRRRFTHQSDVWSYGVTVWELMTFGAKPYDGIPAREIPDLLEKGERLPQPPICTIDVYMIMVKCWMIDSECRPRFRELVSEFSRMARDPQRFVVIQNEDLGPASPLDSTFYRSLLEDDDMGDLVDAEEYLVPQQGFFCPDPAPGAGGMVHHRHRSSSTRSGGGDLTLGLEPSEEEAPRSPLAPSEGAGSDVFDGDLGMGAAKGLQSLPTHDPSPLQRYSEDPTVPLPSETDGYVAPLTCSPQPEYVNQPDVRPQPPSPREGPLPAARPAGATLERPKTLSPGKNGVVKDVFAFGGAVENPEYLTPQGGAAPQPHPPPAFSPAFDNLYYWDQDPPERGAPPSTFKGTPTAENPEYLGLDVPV

| Compound | IC50 [1] | IC50 [2] | IC50 [3] | IC50 [4] | IC50 [5] |
| --- | --- | --- | --- | --- | --- |
| Cc1cc(CCC(=O)O)[nH]c1/C=C1\C(=O)Nc2ncnc(Nc3ccc(F)c(Cl)c3)c21 |  | 4.7 nM | > 20000 nM | > 20000 nM |  |
| Cc1cc(C(=O)N2CCOCC2)[nH]c1/C=C1\C(=O)Nc2ncnc(Nc3ccc4c(ccn4Cc4ccccc4)c3)c21 | 100 nM | 4.5 nM | 2050 nM | > 20000 nM | 100 nM |
| C#Cc1cccc(Nc2ncnc3c2/C(=C/c2[nH]c(C(=O)NCCN4CCOCC4)cc2C)C(=O)N3)c1 | 40 nM | 18 nM | > 20000 nM | > 20000 nM | 40 nM |
| Cc1cc(C(=O)N2CCOCC2)[nH]c1/C=C1\C(=O)Nc2ncnc(N3CCCCC3)c21 |  | > 20000 nM | > 20000 nM | > 20000 nM |  |
| Cc1cc(C(=O)N2CCOCC2)[nH]c1/C=C1\C(=O)Nc2ncnc(Nc3ccc(F)c(Cl)c3)c21 | 40 nM | 170 nM | > 20000 nM | > 20000 nM | 400 nM |
| Cc1cc(C(=O)NCCN2CCOCC2)[nH]c1/C=C1\C(=O)Nc2ncnc(Nc3ccc(F)c(Cl)c3)c21 |  |  | > 20000 nM | > 100000 nM | 100 nM |
| CCN1CCN(C(=O)c2cc(C)c(/C=C3\C(=O)Nc4ncnc(Nc5ccc(F)c(Cl)c5)c43)[nH]2)CC1 | 200 nM | 13 nM | > 20000 nM | > 20000 nM | 100 nM |
| O=C1Nc2ncnc(Nc3ccc(F)c(Cl)c3)c2/C1=C/c1ccc(C(=O)NCCN2CCOCC2)[nH]1 |  | 22 nM | > 20000 nM | > 100000 nM |  |
| Cc1[nH]c(/C=C2\C(=O)Nc3ncnc(Nc4ccc(F)c(Cl)c4)c32)c(C)c1CCC(=O)O |  | 180 nM | > 20000 nM | > 20000 nM |  |
| Cc1cc(/C=C2\C(=O)Nc3ncnc(Nc4ccc(F)c(Cl)c4)c32)[nH]c1C(=O)N1CCN(C)CC1 |  | 210 nM | > 20000 nM | > 20000 nM |  |
| Cc1c(C(=O)N2CCN(C)CC2)c[nH]c1/C=C1\C(=O)Nc2ncnc(Nc3ccc(F)c(Cl)c3)c21 |  | 410 nM | > 20000 nM | > 20000 nM |  |
| Cc1cc(C(=O)N2CCN(C)CC2)[nH]c1/C=C1\C(=O)Nc2ncnc(Nc3ccc(F)c(Cl)c3)c21 | 100 nM | 2.8 nM | > 20000 nM | > 20000 nM | 200 nM |
| Cc1cc(C)c(/C=C2\C(=O)Nc3ncnc(Nc4ccc(F)c(Cl)c4)c32)[nH]1 | 300 nM | 41 nM | 16500 nM | > 100000 nM | 300 nM |
| Cc1cc(C(=O)N2CCOCC2)[nH]c1/C=C1\C(=O)Nc2ncnc(Nc3ccc4c(cnn4Cc4ccccc4)c3)c21 | 100 nM | 1.8 nM | 2100 nM | > 10000 nM | 100 nM |
| Cc1cc(C(=O)NCCN2CCOCC2)[nH]c1/C=C1\C(=O)N(C)c2ncnc(Nc3ccc(F)c(Cl)c3)c21 |  | 5310 nM | 10100 nM | > 20000 nM |  |

Further molecules by falling IC50 [3], results first:

| IC50 [1] | IC50 [2] | IC50 [3] | IC50 [4] | IC50 [5] | Compound |
| --- | --- | --- | --- | --- | --- |
| > 5000 nM | 29 nM | 8920 nM | > 20000 nM | > 5000 nM | Cc1cc(C(=O)O)[nH]c1/C=C1\C(=O)Nc2ncnc(Nc3ccc(F)c(Cl)c3)c21 |
|  | > 20000 nM | 5820 nM | > 20000 nM |  | Cc1cc(C)c(/C=C2\C(=O)N(C)c3ncnc(Nc4ccc(F)c(Cl)c4)c32)[nH]1 |
|  | 200 nM | 3470 nM | > 20000 nM |  | CCN(CC)CCNC(=O)c1c(C)[nH]c(/C=C2\C(=O)Nc3ncnc(Nc4ccc(F)c(Cl)c4)c32)c1C |
| 200 nM | 1.1 nM | 3470 nM | > 100000 nM | 40 nM | Cc1cc(C(=O)NCCN2CCOCC2)[nH]c1/C=C1\C(=O)Nc2ncnc(Nc3ccc4c(ccn4Cc4ccccc4)c3)c21 |
| 5000 nM | 1410 nM | 3460 nM | > 20000 nM | > 5000 nM | Cc1cc(C(=O)N2CCOCC2)[nH]c1/C=C1\C(=O)Nc2ncnc(Nc3ccc4c(c3)CCC4)c21 |
|  |  | 1630 nM | > 20000 nM | 500 nM | Cc1cc(C(=O)N2CC(C)NC(C)C2)[nH]c1/C=C1\C(=O)Nc2ncnc(Nc3ccc(F)c(Cl)c3)c21 (stereo not drawn) |
|  | 0.45 nM | 360 nM |  |  | CCN(CC)CC(O)CNC(=O)c1cc(C)c(/C=C2\C(=O)Nc3ncnc(Nc4ccc(F)c(Cl)c4)c32)[nH]1 (stereo not drawn) |
| 200 nM | 1.2 nM | 300 nM |  | 200 nM | CCN(CC)CCNC(=O)c1cc(C)c(/C=C2\C(=O)Nc3ncnc(Nc4ccc(F)c(Cl)c4)c32)[nH]1 |
| 500 nM | 450 nM | 40 nM | 5620 nM |  | CCN(CC)CCNC(=O)c1cc(C)c(/C=C2\C(=O)Nc3ncnc(Nc4ccc(Cl)cc4F)c32)[nH]1 |
